From PubChem BioAssay (NCI)
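Cultured in 96-well plates, cells were exposed to test compound for 48 hours across five concentrations. GI50 = concentration required for 50% inhibition of growth. TGI denotes the concentration required for complete inhibition of growth.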

Legend:
Assay in all cases: inhibition of tumour cell growth, NCI panel, 48 h
786-0 renal = system: 786-0 renal
A498 renal = system: A498 renal
K-562 leukemia = system: K-562 leukemia
M14 melanoma = system: M14 melanoma
MALME-3M melanoma = system: MALME-3M melanoma
SK-MEL-2 melanoma = system: SK-MEL-2 melanoma
SK-MEL-5 melanoma = system: SK-MEL-5 melanoma
SK-OV-3 ovarian = system: SK-OV-3 ovarian
SNB-75 CNS = system: SNB-75 CNS
UO-31 renal = system: UO-31 renal

SMILES	TGI (786-0 renal)	TGI (A498 renal)	TGI (K-562 leukemia)	TGI (M14 melanoma)	TGI (MALME-3M melanoma)	TGI (SK-MEL-2 melanoma)	TGI (SK-MEL-5 melanoma)	TGI (SK-OV-3 ovarian)	TGI (SNB-75 CNS)	TGI (UO-31 renal)	GI50 (786-0 renal)	GI50 (A498 renal)	GI50 (K-562 leukemia)	GI50 (M14 melanoma)	GI50 (MALME-3M melanoma)	GI50 (SK-MEL-2 melanoma)	GI50 (SK-MEL-5 melanoma)	GI50 (SK-OV-3 ovarian)	GI50 (SNB-75 CNS)	GI50 (UO-31 renal)
Cc1ccccc1N=Nc1c(-c2ccccc2)nn(C(=O)CC(=O)Nc2cccc(Cl)c2)c1-c1ccccc1	> 31.6 µM	29.9 µM	> 31.6 µM	> 31.6 µM	> 100 µM	26 µM	24.9 µM	> 31.6 µM	> 31.6 µM	> 31.6 µM										
O=C(Nc1ccc2c(c1)OCCO2)C(=O)c1c[nH]c2ccccc12	44.9 µM	7.08 µM	> 100 µM	> 100 µM	> 100 µM	32.9 µM	> 100 µM	8.62 µM	5.96 µM	> 71.4 µM	4.28 µM	0.535 µM	0.369 µM	0.839 µM	10.5 µM	2.62 µM	1.47 µM	1.5 µM	1.33 µM	5.11 µM
O=C(/C=C\n1cnc(-c2cc(C(F)(F)F)cc(C(F)(F)F)c2)n1)N1CC(F)(F)C1	6.12 µM	0.452 µM	> 25 µM	6.57 µM	5.84 µM	1.58 µM	4.08 µM	> 25 µM	6.44 µM	> 25 µM	0.387 µM	0.0375 µM	0.43 µM	1.36 µM	1.14 µM	0.154 µM	0.644 µM	1.08 µM	0.432 µM	0.422 µM
CCn1c(=N)sc2nc3ccccc3n2c1=O	> 100 µM	> 100 µM	> 100 µM	> 100 µM	> 100 µM	> 100 µM	> 100 µM	> 100 µM	> 100 µM	33.3 µM										
CN1CCN(CCCOc2cccc3nc(Nc4ccc(F)c(F)c4)ccc23)CC1	9.25 µM	11.6 µM	1.49 µM	1.49 µM	6.05 µM	8.62 µM	8.69 µM	8.87 µM	9.5 µM	9.01 µM	4.66 µM	5.65 µM	0.662 µM	0.68 µM	1.44 µM	3.95 µM	4.44 µM	4.39 µM	3.92 µM	4.34 µM
COc1ccc2nc3cccc([N+](=O)[O-])c3c(NCCNCCN(C)C)c2c1	0.164 µM	0.45 µM	0.0987 µM	0.208 µM	0.538 µM	0.107 µM	0.13 µM	1.06 µM	0.386 µM	0.377 µM	0.0429 µM	0.201 µM	0.0222 µM	0.0734 µM	0.205 µM	0.0308 µM	0.0325 µM	0.279 µM	0.158 µM	0.119 µM
S=C(CSc1ccccc1)Nc1cccc2ccccc12	> 100 µM	71 µM	> 100 µM	> 100 µM	> 100 µM	74.5 µM	36.6 µM	> 100 µM	> 100 µM	> 100 µM										
CCCCCCCCCCOC(=O)c1cc[n+](C)cc1	31.7 µM	36.9 µM	34.2 µM	32.2 µM	30.7 µM	49.1 µM	33.6 µM	29.6 µM	34.3 µM	30.3 µM										
CCN(CC)c1ccc(N=Nc2ccc(-c3nc4cccn(C)c-4n3)cc2)cc1	17 µM	28.3 µM	11.9 µM	24.4 µM	26.8 µM	35.3 µM	16.8 µM	43.5 µM	38.9 µM	41 µM										
COC(=O)CC(=O)NCC1=CCC(=O)CC1	> 100 µM	> 100 µM	> 100 µM	> 100 µM	> 100 µM	> 100 µM	> 100 µM	> 100 µM	> 100 µM	> 100 µM										
CC1(C)C(=O)C(=Cc2ccco2)C1=O	> 100 µM	> 100 µM	> 100 µM	> 100 µM	> 100 µM	> 100 µM	> 100 µM	> 100 µM	> 100 µM	> 100 µM										
O=c1[nH]c(=O)n(C2CC(O)C(CO)O2)cc1COCC(F)(F)F (centres undefined)	> 100 µM	> 100 µM	> 100 µM	> 100 µM	> 100 µM	> 100 µM	> 100 µM	> 100 µM	> 100 µM	> 100 µM										
COc1cc2c3c(c1OC)C(=O)C=C3N(S(=O)(=O)c1ccc(C)cc1)CC2	> 100 µM	> 100 µM	> 100 µM	> 100 µM	> 100 µM	> 100 µM	> 100 µM	> 100 µM	> 100 µM	> 100 µM										
NCCOc1ncccc1/C=C1\c2ccccc2-c2ccc([N+](=O)[O-])cc21	0.139 µM	0.578 µM	1.23 µM	0.322 µM	0.275 µM	0.754 µM	0.253 µM	0.309 µM	0.437 µM	0.186 µM	0.0268 µM	0.158 µM	0.0337 µM	0.0439 µM	0.055 µM	0.314 µM	0.101 µM	0.0489 µM	0.0488 µM	0.0439 µM
OC(COc1ccccc1)CN1CCCCC1 (centres undefined)	> 100 µM	> 100 µM	> 100 µM	> 100 µM	> 100 µM	> 100 µM	> 100 µM	> 100 µM	> 100 µM	> 100 µM										
CC(=O)O[C@H](C[C@H](C(C)C)N(C)C(=O)[C@@H](NC(=O)[C@H]1CCCCN1C)C(C)C)c1cccc(C(=O)N[C@@H](Cc2ccccc2)C[C@H](C)C(=O)O)n1	> 25 µM	0.0737 µM	> 25 µM		> 25 µM	> 25 µM	0.36 µM	> 25 µM	> 25 µM	> 25 µM	0.0463 µM	0.0158 µM	0.0103 µM	0.0237 µM	0.0164 µM	0.0159 µM	0.0155 µM	0.0312 µM	0.00695 µM	0.33 µM

SMILES	TGI (786-0 renal)	TGI (A498 renal)	TGI (K-562 leukemia)	TGI (M14 melanoma)	TGI (MALME-3M melanoma)	TGI (SK-MEL-2 melanoma)	TGI (SK-MEL-5 melanoma)	TGI (SK-OV-3 ovarian)	TGI (SNB-75 CNS)	TGI (UO-31 renal)	GI50 (786-0 renal)	GI50 (A498 renal)	GI50 (K-562 leukemia)	GI50 (M14 melanoma)	GI50 (MALME-3M melanoma)	GI50 (SK-MEL-2 melanoma)	GI50 (SK-MEL-5 melanoma)	GI50 (SK-OV-3 ovarian)	GI50 (SNB-75 CNS)	GI50 (UO-31 renal)
O=C(N/C(=C/c1cccc([N+](=O)[O-])c1)c1nc2ccc(Cl)cc2[nH]1)c1ccccc1	> 100 µM	66.2 µM	46.9 µM	> 100 µM	36.4 µM	50.3 µM	12.7 µM	86.6 µM	68.3 µM	17.2 µM										
N#C/C(=C\c1ccccc1)C(NO)Nc1ccccc1 (centres undefined)	> 100 µM	> 100 µM	> 100 µM	> 100 µM	> 100 µM	> 100 µM	> 100 µM	> 100 µM	> 100 µM	> 100 µM										
Nc1ccc(-c2ccc3ncc4ccc(=O)n(-c5cccc(C(F)(F)F)c5)c4c3c2)cn1	0.423 µM	< 0.01 µM	> 43.2 µM	0.266 µM	0.0315 µM	0.0572 µM	0.0767 µM	0.0222 µM	0.0227 µM	2.39 µM	< 0.01 µM	< 0.01 µM	< 0.014 µM	< 0.01 µM	< 0.01 µM	< 0.01 µM	< 0.01 µM	< 0.01 µM	< 0.01 µM	< 0.01 µM
CC1=C(C(=O)Nc2ccccc2)C(c2cc(Cl)cc(Cl)c2)C(C(=O)Nc2ccccc2)=C(C)N1	22.9 µM	43.1 µM	13.6 µM	27.8 µM	27.9 µM	25.8 µM	27.7 µM	98.7 µM	34 µM	26.9 µM										
CCC[CH2][Sn]([CH2]CCC)([O]C(=O)c1cccc(F)c1F)[O]C(=O)c1cccc(F)c1F	2.22 µM	2.39 µM	1.08 µM	2.77 µM	1.89 µM	1.46 µM	2.87 µM	4.49 µM	2.1 µM	2.92 µM	1.05 µM	1.15 µM	0.207 µM	1.4 µM	0.585 µM	0.41 µM	1.52 µM	2.41 µM	0.874 µM	1.56 µM
CCOC(=O)C#Cc1c(C(=O)OCC)nnn1[C@@H]1O[C@H](CO)[C@H]2OC3(CCCCC3)O[C@H]21	8.62 µM	31.8 µM	7.97 µM	7.6 µM	3.76 µM	34 µM	26.6 µM	33.3 µM	24.2 µM	3.28 µM	2.88 µM	17.6 µM	1.67 µM	2.67 µM	1.87 µM	17.7 µM	13.7 µM	17.7 µM	11.5 µM	1.67 µM
COC(=O)N/N=C(\C)C(CN(C)C)C(c1ccccc1)c1c(O)c2ccccc2oc1=O (centres undefined)	> 100 µM	> 100 µM	> 100 µM	> 100 µM	> 100 µM	> 100 µM	> 100 µM	> 100 µM	> 100 µM	> 100 µM										
CCc1nc2cc(/C=C/C(=O)NO)ccc2c(=O)n1CCc1ccc(OC)cc1	6.28 µM	3.39 µM	> 100 µM	10.4 µM	8.28 µM	24.9 µM	5.09 µM	6.11 µM	33.2 µM	5.13 µM	2.31 µM	1.17 µM	3.07 µM	2.88 µM	1.53 µM	3.66 µM	1.96 µM	2.42 µM	2.62 µM	1.5 µM
COc1ccc(-c2nn3ncccc3c2-c2ccnc(Nc3ccc4c(c3)OCCO4)n2)cc1	> 25 µM	22.1 µM	> 25 µM	> 25 µM	> 25 µM	> 21 µM	> 25 µM	> 20.8 µM	> 25 µM	16.7 µM	8.38 µM	3.69 µM	9.06 µM	8.55 µM	12.5 µM	7.39 µM	6.26 µM	4.08 µM	> 13.9 µM	2.19 µM
Cn1cc(C2=C(c3ccccc3C(F)(F)F)C(=O)NC2=O)c2ccccc21	> 25 µM	17.5 µM	> 25 µM	> 25 µM	> 25 µM	> 24 µM	13 µM	> 25 µM	> 25 µM	> 25 µM	9.16 µM	3.9 µM	8.82 µM	19.8 µM	> 18.5 µM	8.11 µM	4.74 µM	10.2 µM	> 14 µM	7.84 µM
COc1ccc(-c2nsc3c2NC(=O)CC3c2cccc(Cl)c2)cc1 (centres undefined)	> 100 µM	8.1 µM	> 100 µM	> 100 µM	> 100 µM	9.93 µM	51.6 µM	> 100 µM	7.46 µM	> 100 µM	9.39 µM	1.34 µM	0.399 µM	1.46 µM	6.59 µM	0.878 µM	1.38 µM	3.31 µM	1.53 µM	5.22 µM
NC(=S)N/N=C1/CN(c2ccc(Cl)c(Cl)c2)CC(=O)C1c1nc2ccccc2s1 (centres undefined)	> 100 µM	> 100 µM	> 100 µM	> 100 µM	> 100 µM	> 100 µM	> 100 µM	> 100 µM	> 100 µM	> 100 µM										
CC(C)C(=S)N(C)O	> 100 µM	63.1 µM	> 100 µM	> 100 µM	> 100 µM	72.3 µM	> 77.7 µM	> 100 µM	> 100 µM	50.2 µM										
CCOc1ccc(N=Cc2ccnc3ccccc23)cc1	> 100 µM	> 100 µM	46.9 µM	80 µM	> 97.7 µM	> 85.3 µM	> 82.6 µM	> 83.3 µM	> 92.2 µM	> 100 µM										
COc1ccc2c(c1)CCc1c(CO)c(COC(=O)NC(C)C)n(C)c1-2	> 100 µM	77.5 µM	10.5 µM	33.8 µM	16.2 µM	58 µM	15.1 µM	73.3 µM	> 27.3 µM	19.6 µM										
CC(=O)OC1C(O[C@H]2CC[C@]34O[C@]35CC[C@]3(C)C(C6(C)CC[C@@H](C(C)(C)O)O6)[C@@H](O)CC3(C)[C@@H]5CC(OC3OC(CO)C(O)C(O)C3O)C4C2(C)C)OCC(O)C1O (some centres undefined)	> 60.9 µM	> 100 µM	> 74.8 µM	> 100 µM	> 100 µM	> 100 µM	> 100 µM	> 100 µM	> 100 µM	> 100 µM										
